Measured values as given in patent US9890185B2, “Urea derivatives useful as kinase inhibitors” (Respivert Limited, priority 2013, dated 2018).

What was measured:
[1] = target: p38 MAPKα isoform (MAPK14) (Homo sapiens (Human), UniProt Q16539); test: p38 MAPKα enzyme inhibition (FRET, Z-LYTE, Method 2); type: biochemical
Summary of the method: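 Z-LYTE FRET: p38 MAPKα (80 ng/mL for Method 1, 200 ng/mL for Method 2, pre-dilution) preincubated 2 hr RT with compound (4–0.004 μg/mL solutions), activity read via MAPKAP-K2 phosphorylation after 1 hr RT and 1 hr protease development. Coumarin/fluorescein ratio gives phosphorylation; % inhibition versus uninhibited control, IC50 from concentration-response curve.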

c-Src = c-Src (Homo sapiens (Human), UniProt P12931); test: c-Src enzyme inhibition (FRET, Z-LYTE); type: biochemical
Summary of the method: (§1)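 Z-LYTE FRET read-out uses protease cleavage of unphosphorylated peptide, and the donor/acceptor ratio reflects phosphorylation. Kinase stocks (c-Src 3000, Syk 2000 ng/mL) were preincubated 2 hr RT with compound stocks of 0.004–4 μg/mL. Peptide and ATP solutions (c-Src 800 μM, Syk 60 μM) were then added for 1 hr. IC50 was taken from concentration-response.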

Syk = Syk (Homo sapiens (Human), UniProt P43405); test: Syk enzyme inhibition (FRET, Z-LYTE); type: biochemical
Summary of the method: as §1

GSK 3α = GSK 3α (Homo sapiens (Human), UniProt P49840); test: GSK 3α enzyme inhibition (FRET, Z-LYTE, Method 2); type: biochemical; details: read-out: IC50 Values for Enzyme Inhibition, GSK3α
Summary of the method: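 Human GSK3α (500 ng/mL) preincubated with compound (4, 0.4, 0.04 or 0.004 μg/mL) at RT for 2 h (Method 1) or 105 min (Method 2). Then FRET peptide (8 μM) and ATP (40 μM) added for 1 h, followed by protease development for 1 h. IC50 from the coumarin/fluorescein emission ratio relative to uninhibited control.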

PBMCs [2] = test: LPS-induced IL-8 release in PBMC cells (assay b); type: cell-based, human; details: Homo sapiens, PBMC; LPS-stimulated PBMCs; read-out: IC50 Values for Inhibition of Cytokine Release, PBMCs IL-8
Summary of the method: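 Cytokines (TNFα, IL-8) in supernatants were quantified by sandwich ELISA after a 24 h challenge with 1 ng/mL E. coli LPS at 37° C, 5% CO2. Healthy-donor PBMCs had been exposed to compound for 2 h beforehand. IC50 values were fitted from the concentration-response curves.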

HT29 cells = test: IL-1β-induced IL-8 release in HT29 cells (assay d); type: cell-based; details: Homo sapiens, HT-29; IL-1β-stimulated HT29 cells; read-out: IC50 Values for Inhibition of Cytokine Release, HT29 cells IL-8
Experimental: HT29 cells, a human colon adenocarcinoma cell line, are plated in a 96 well plate (24 hrs) and pre-treated with compounds at the desired concentration for 2 hours before addition of 5 ng/mL of IL-1β (Abcam) for 24 hours. Supernatants are harvested for IL-8 quantification by Sandwich ELISA (Duo-set, R&D System). The IC50 is determined from the dose response curve.

d-U937 cells = test: Accumulation of β catenin in d-U937 cells (assay m); type: cell-based, human; details: percentage relative to Reference Compound at 1 μg/mL
Summary of the method: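 Read-out: colourimetric cell-based immunoassay for endogenous β-catenin (OD450 minus 655 reference), normalised to crystal violet absorbance at 595 nm. Test compound or vehicle was applied for 18 hr to U937 monocytes first differentiated with PMA (100 ng/mL) for 48–72 hr.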

PBMCs [3] = test: Cell mitosis assay in PBMCs (assay g); type: cell-based; details: Homo sapiens, PBMC, test compound 5 μg/mL
Summary of the method: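 Metaphase arrest with 0.1 μg/mL demecolcine during the final 2 hr of a 20 hr compound exposure, which follows 48 hr of 2% PHA stimulation of healthy-donor human PBMCs. Mitotic lymphocytes counted by flow cytometry (anti-phospho-histone 3 plus propidium iodide). Inhibition expressed relative to 0.5% DMSO.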

PBMCs [4] = test: IL-2 release in CD3/CD28 stimulated PBMC cells (assay c); type: cell-based; details: Homo sapiens, read-out: IC50 Values for Inhibition of Cytokine Release, PBMCs IL-2
Summary of the method: (§2)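 Steps: PBMCs separated from healthy whole blood by density gradient; seeded onto anti-CD3/CD28 coating (0.3 and 3 μg/mL respectively); compound added; incubated 3 days in standard tissue culture; supernatant cytokines quantified by sandwich ELISA, IC50 fitted.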

PBMCs [5] = test: IFN gamma release in CD3/CD28 stimulated PBMC cells (assay c); type: cell-based; details: Homo sapiens, read-out: IC50 Values for Inhibition of Cytokine Release, PBMCs IFNγ
Summary of the method: as §2

GSK 3α, sequence (P49840 whole entry): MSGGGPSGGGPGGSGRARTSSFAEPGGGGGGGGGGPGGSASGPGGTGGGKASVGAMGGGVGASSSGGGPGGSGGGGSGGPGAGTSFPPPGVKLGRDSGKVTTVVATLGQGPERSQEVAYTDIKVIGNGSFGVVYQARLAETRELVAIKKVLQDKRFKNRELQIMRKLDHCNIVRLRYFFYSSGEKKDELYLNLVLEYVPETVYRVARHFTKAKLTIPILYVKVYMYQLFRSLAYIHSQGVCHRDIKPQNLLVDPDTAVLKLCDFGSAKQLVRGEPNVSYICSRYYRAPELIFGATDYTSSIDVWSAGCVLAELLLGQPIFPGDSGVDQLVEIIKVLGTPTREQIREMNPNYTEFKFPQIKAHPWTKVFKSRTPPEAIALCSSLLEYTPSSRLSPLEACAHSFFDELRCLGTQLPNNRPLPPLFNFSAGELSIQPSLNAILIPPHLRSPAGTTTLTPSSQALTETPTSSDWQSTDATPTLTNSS
p38 MAPKα isoform (MAPK14), sequence (Q16539 whole entry, canonical isoform): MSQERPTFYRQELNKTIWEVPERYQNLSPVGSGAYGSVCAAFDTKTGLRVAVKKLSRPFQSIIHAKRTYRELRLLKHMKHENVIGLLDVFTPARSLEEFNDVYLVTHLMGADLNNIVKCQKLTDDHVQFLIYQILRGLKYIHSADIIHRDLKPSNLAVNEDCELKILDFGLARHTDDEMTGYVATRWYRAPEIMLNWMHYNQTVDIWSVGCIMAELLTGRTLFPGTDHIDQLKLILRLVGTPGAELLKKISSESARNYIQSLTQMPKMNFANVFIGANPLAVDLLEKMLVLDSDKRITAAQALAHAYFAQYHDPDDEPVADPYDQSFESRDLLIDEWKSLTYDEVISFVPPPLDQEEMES
c-Src, sequence (P12931 whole entry, looked up): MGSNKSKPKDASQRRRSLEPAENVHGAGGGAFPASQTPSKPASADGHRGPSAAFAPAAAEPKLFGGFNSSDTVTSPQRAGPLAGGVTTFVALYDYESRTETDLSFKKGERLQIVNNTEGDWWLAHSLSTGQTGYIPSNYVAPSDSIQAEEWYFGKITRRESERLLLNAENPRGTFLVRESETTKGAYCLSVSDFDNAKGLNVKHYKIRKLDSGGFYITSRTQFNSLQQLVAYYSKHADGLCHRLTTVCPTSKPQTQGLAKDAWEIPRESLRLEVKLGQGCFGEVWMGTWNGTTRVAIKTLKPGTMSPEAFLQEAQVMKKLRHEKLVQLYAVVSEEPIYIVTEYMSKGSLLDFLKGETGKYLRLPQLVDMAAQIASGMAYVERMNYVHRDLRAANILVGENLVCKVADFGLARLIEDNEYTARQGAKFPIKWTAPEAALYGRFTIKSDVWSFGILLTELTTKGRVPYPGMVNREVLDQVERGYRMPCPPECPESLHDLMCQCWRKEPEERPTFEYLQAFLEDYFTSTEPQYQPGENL

`COCCOCCOCCOc1cc(Nc2nccc(Oc3ccc(NC(=O)Nc4cc(C(C)(C)C)cc(CC(N)=O)c4OC)c4ccccc34)n2)cc(OC)c1` [15(c), 2-(5-(tert-butyl)-2-methoxy-3-(3-(4-((2-((3-methoxy-5-(2-(2-(2-methoxyethoxy)ethoxy)-ethoxy)phenyl)amino)pyrimidin-4-yl)oxy)naphthalen-1-yl)ureido)phenyl)acetamide] was tested, and the IC50 [1] was 52 nM, the IC50 (c-Src) was 16 nM and the IC50 (Syk) was 103 nM. For the same molecule, the IC50 (GSK 3α) was 844 nM, the IC50 (PBMCs [2]) was 1.6 nM and the IC50 (HT29 cells) was 3.6 nM. The “% β-catenin induction” value (d-U937 cells; test compound 1 μg/mL) was 5.5%, the “% β-catenin induction” value (d-U937 cells; test compound 5 μg/mL) was 36.0% and the “% β-catenin induction” value (d-U937 cells; test compound 10 μg/mL) was 33.0%.
With `COc1c(NC(=O)Nc2ccc(Oc3ccnc(Nc4ccccc4)c3)c3ccccc23)cc(C(C)(C)C)cc1C(=O)NCCN1CCC1` [38(a), N-(2-(Azetidin-1-yl)ethyl)-5-(tert-butyl)-2-methoxy-3-(3-(4-((2-(phenylamino)pyridin-4-yl)oxy)naphthalen-1-yl)ureido)benzamide] the IC50 [1] was 119 nM, the IC50 (c-Src) was 74 nM and the IC50 (Syk) was 54 nM. The IC50 (GSK 3α) was 3320 nM, the IC50 (PBMCs [2]) was 3.8 nM and the IC50 (HT29 cells) was 25.7 nM. For the same molecule, the inhibition at 5 µg/mL (PBMCs [3]) was 86.2%, the “% β-catenin induction” value (d-U937 cells; test compound 1 μg/mL) was 5.0% and the “% β-catenin induction” value (d-U937 cells; test compound 5 μg/mL) was 10.7%. For the same molecule, the “% β-catenin induction” value (d-U937 cells; test compound 10 μg/mL) was 19.0%.
Work on `COc1cc(CO)cc(Nc2cc(Oc3ccc(NC(=O)Nc4cc(C(C)(C)C)cc(P(C)(C)=O)c4OC)c4ccccc34)ccn2)c1` [38(c), 1-(5-(tert-Butyl)-3-(dimethylphosphoryl)-2-methoxyphenyl)-3-(4-((2-((3-(hydroxymethyl)-5-methoxyphenyl)amino)pyridin-4-yl)oxy)naphthalen-1-yl)urea] yielded an IC50 [1] of 27 nM, an IC50 (c-Src) of 12 nM and an IC50 (Syk) of 31 nM. For the same molecule, the IC50 (GSK 3α) was 2220 nM, the IC50 (PBMCs [2]) was 1.7 nM and the IC50 (HT29 cells) was 7.3 nM. For the same molecule, the inhibition at 5 µg/mL (PBMCs [3]) was 90.2%, the “% β-catenin induction” value (d-U937 cells; test compound 1 μg/mL) was 3.5% and the “% β-catenin induction” value (d-U937 cells; test compound 5 μg/mL) was 16.0%. For the same molecule, the “% β-catenin induction” value (d-U937 cells; test compound 10 μg/mL) was 28.5%.
For `COc1c(NC(=O)Nc2ccc(Oc3ccnc(NCc4ccccn4)c3)c3ccccc23)cc(C(C)(C)C)cc1P(C)(C)=O` [38(e), 1-(5-(tert-Butyl)-3-(dimethylphosphoryl)-2-methoxyphenyl)-3-(4-((2-((pyridin-2-ylmethyl)amino)pyridin-4-yl)oxy)naphthalen-1-yl)urea], the IC50 [1] was 5 nM, the IC50 (c-Src) was 522 nM and the IC50 (Syk) was greater than 1600 nM. For the same molecule, the IC50 (GSK 3α) was 1980 nM, the IC50 (PBMCs [2]) was 2.9 nM and the IC50 (HT29 cells) was 15.9 nM. For the same molecule, the inhibition at 5 µg/mL (PBMCs [3]) was 41.6%, the “% β-catenin induction” value (d-U937 cells; test compound 1 μg/mL) was 2.0% and the “% β-catenin induction” value (d-U937 cells; test compound 5 μg/mL) was 30.5%. The “% β-catenin induction” value (d-U937 cells; test compound 10 μg/mL) was 32.5%.
For `COc1c(CC(N)=O)cc(C(C)(C)C)cc1NC(=O)Nc1ccc(Oc2ccnc(Nc3cccc(OS(C)(=O)=O)c3)c2)c2ccccc12` [38(r), 3-((4-((4-(3-(3-(2-Amino-2-oxoethyl)-5-(tert-butyl)-2-methoxyphenyl)ureido)naphthalen-1-yl)oxy)pyridin-2-yl)amino)phenyl methanesulfonate], the IC50 [1] was 151 nM, the IC50 (c-Src) was 94 nM and the IC50 (Syk) was greater than 1460 nM. It also gave an IC50 (GSK 3α) of 2210 nM, an IC50 (PBMCs [2]) of 1.9 nM and an IC50 (PBMCs [4]) of 153 nM. The IC50 (PBMCs [5]) was 9.8 nM, the IC50 (HT29 cells) was 25.9 nM and the inhibition at 5 µg/mL (PBMCs [3]) was 56.1%.
`COc1cc(Nc2cc(Oc3ccc(NC(=O)Nc4cc(C(C)(C)C)cc(C[S+](C)[O-])c4OC)c4ccccc34)ccn2)cc(C(=O)NCCN2CCOCC2)c1` (stereo not drawn) [38(u), 3-((4-((4-(3-(5-(tert-Butyl)-2-methoxy-3-((methylsulfinyl)methyl)phenyl)ureido)naphthalen-1-yl)oxy)pyridin-2-yl)amino)-5-methoxy-N-(2-morpholinoethyl)benzamide] showed an IC50 [1] of 15 nM, an IC50 (c-Src) of 13 nM and an IC50 (GSK 3α) of 1070 nM. The IC50 (PBMCs [2]) was 1 nM, the IC50 (PBMCs [4]) was 171 nM and the IC50 (PBMCs [5]) was 2.9 nM. For the same molecule, the IC50 (HT29 cells) was 2.6 nM and the inhibition at 5 µg/mL (PBMCs [3]) was 72.2%.
Molecule `COCCOCCOCCOc1cc(Nc2nccc(Oc3ccc(NC(=O)Nc4cc(C(C)(C)C)cc(OS(C)(=O)=O)c4OC)c4ccccc34)n2)cc(OC)c1` [Example 5, 5-(tert-Butyl)-2-methoxy-3-(3-(4-((2-((3-methoxy-5-(2-(2-(2-methoxyethoxy)ethoxy)-ethoxy)phenyl)amino)pyrimidin-4-yl)oxy)naphthalen-1-yl)ureido)phenyl methanesulfonate] has an IC50 (GSK 3α) greater than 9380 nM, an IC50 (PBMCs [2]) of 8.7 nM and an IC50 (HT29 cells) of 7.3 nM.
With `COc1c(NC(=O)Nc2ccc(Oc3ccnc(NCc4ccccn4)c3)c3ccccc23)cc(C(C)(C)C)cc1[S+](C)[O-]` (stereo not drawn) [Example 42, 1-(5-(tert-Butyl)-2-methoxy-3-(methylsulfinyl)phenyl)-3-(4-((2-((pyridin-2-ylmethyl)amino)pyridin-4-yl)oxy)naphthalen-1-yl)urea] the IC50 [1] was 8 nM, the IC50 (c-Src) was greater than 1640 nM and the IC50 (Syk) was greater than 1640 nM. For the same molecule, the IC50 (GSK 3α) was 3410 nM, the IC50 (PBMCs [2]) was 4.3 nM and the IC50 (HT29 cells) was 2 nM. For the same molecule, the inhibition at 5 µg/mL (PBMCs [3]) was 29.9%, the “% β-catenin induction” value (d-U937 cells; test compound 1 μg/mL) was −5.0% and the “% β-catenin induction” value (d-U937 cells; test compound 5 μg/mL) was 12.0%. For the same molecule, the “% β-catenin induction” value (d-U937 cells; test compound 10 μg/mL) was 20.5%.
In the case of `COc1cc(Nc2cc(Oc3ccc(NC(=O)Nc4cc(C(C)(C)C)cc(CC(N)=O)c4OC)c4ccccc34)ccn2)cc(C(=O)NCCN2CCOCC2)c1` [Example 45, 3-((4-((4-(3-(3-(2-Amino-2-oxoethyl)-5-(tert-butyl)-2-methoxyphenyl)ureido)naphthalen-1-yl)oxy)pyridin-2-yl)amino)-5-methoxy-N-(2-morpholinoethyl)benzamide], the IC50 [1] is reported as 21 nM, the IC50 (c-Src) is reported as 12 nM and the IC50 (Syk) is reported as greater than 706 nM. For the same molecule, the IC50 (GSK 3α) was 1600 nM, the IC50 (PBMCs [2]) was 1.2 nM and the IC50 (PBMCs [4]) was 36.4 nM. For the same molecule, the IC50 (PBMCs [5]) was 5.2 nM, the IC50 (HT29 cells) was 8 nM and the inhibition at 5 µg/mL (PBMCs [3]) was 49.6%.
Molecule `COc1cc(Nc2cc(Oc3ccc(NC(=O)Nc4cc(C(C)(C)C)cc([S+](C)[O-])c4OC)c4ccccc34)ccn2)cc(C(=O)NCCN2CCOCC2)c1` (stereo not drawn) [Example 46, 3-((4-((4-(3-(5-(tert-Butyl)-2-methoxy-3-(methylsulfinyl)phenyl)ureido)naphthalen-1-yl)oxy)pyridin-2-yl)amino)-5-methoxy-N-(2-morpholinoethyl)benzamide] has an IC50 [1] of 25 nM, an IC50 (c-Src) of 25 nM and an IC50 (Syk) of 996 nM. The IC50 (GSK 3α) was 2060 nM, the IC50 (PBMCs [2]) was 0.8 nM and the IC50 (PBMCs [4]) was 47.3 nM. It also gave an IC50 (PBMCs [5]) of 2.8 nM, an IC50 (HT29 cells) of 2.8 nM and an inhibition at 5 µg/mL (PBMCs [3]) of 45.8%.
Molecule `COc1cc(Nc2cc(Oc3ccc(NC(=O)Nc4cc(C(C)(C)C)cc(CC(N)=O)c4OC)c4ccccc34)ccn2)cc(C(N)=O)c1` [Example 47, 3-((4-((4-(3-(3-(2-Amino-2-oxoethyl)-5-(tert-butyl)-2-methoxyphenyl)ureido)naphthalen-1-yl)oxy)pyridin-2-yl)amino)-5-methoxybenzamide] has an IC50 [1] of 36 nM, an IC50 (c-Src) of 34 nM and an IC50 (Syk) greater than 1510 nM. It also gave an IC50 (GSK 3α) of 1460 nM, an IC50 (PBMCs [2]) of 2.2 nM and an IC50 (PBMCs [4]) of 57.1 nM. The IC50 (PBMCs [5]) was 3 nM, the IC50 (HT29 cells) was 26.1 nM and the inhibition at 5 µg/mL (PBMCs [3]) was 30.1%.
